# Assay results reported in patent publication US12139488B2, “Pyrido[3,2-d]pyrimidine compounds uses thereof for treating a proliferative disease” (Universite de Montreal, priority 2021, dated 2024).
# Read-outs that look alike come from different tables or passages of the source.
# How the values were obtained:
# BRAF = BRAF (Homo sapiens (Human), UniProt P15056); assay: BRAF kinase activity assay (ADP-Glo); assay type: biochemical
# Experimental: (§1) Compound preparation: solid samples of each substances in 1 dram vials were suspended in DMSO (Fisher Scientific) at a stock concentration of 20 mM. Stocks were kept at −20° C. and protected from light.
# (§2) In vitro enzymatic reactions were used for evaluating compounds intrinsic activity against BRAF, CRAF and ARAF. […] Separate reactions were performed with the MEK1 substrate and ATP as a blank control.
# (§3) For compound treatment, 5 μL/well of test substance solution are placed in a 384-well proxyplate (Perkin Elmer) and mixed with 2× concentrated kinase reactions. The dilution series is selected so that nine concentrations cover a range from 100 nM to 0.01 nM. […] The final concentration of DMSO in the assay is set at 0.05%.
# (§4) BRAF and CRAF kinase reactions were carried out for a total of 2 hours at 30° C. and then stopped by ½ dilution in ADP-Glo Reagent (cat #V9102; Promega; part V912C). Reactions were then incubated for 1h at room temperature before addition of one volume of Kinase Detection Reagent (cat #V9102; Promega; part V917A). Plates were then equilibrated at room temperature for 30 minutes before detection of luminescence on a Synergy Neo2 plate reader (Biotek). The effect of each compound dilution on BRAF and CRAF kinase activity was expressed as % inhibition and calculated as follows.
# (§5) IC50 values were obtained by plotting the kinase inhibition values and fitting the dose-activity curves using a log(agonist) versus response-variable slope (four parameters) function using either GraphPadPrism (V7.0) or Dotmatics Screening Ultra platform.
# CRAF = CRAF (Homo sapiens, UniProt P04049); assay: CRAF kinase activity assay (ADP-Glo); assay type: biochemical
# Experimental: as §1, §2, §3, §4, §5
# [1] = test system: pERK in HCT-116 cells (KRAS G13D); assay: Phospho-ERK inhibition (AlphaLISA SureFire Ultra p-ERK 1/2), HCT116; assay type: cell-based, human; conditions: for HCT116 pERK % Ymin (lowest value of the IC50 curve): Ymin above −20% = minimal or no paradoxical activation
# Summary of the method: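 Read-out: AlphaLISA p-ERK1/2 (Thr202/Tyr204) in lysates after 1 h exposure to compound in complete RPMI-1640, 5% FBS, 0.5% DMSO. Trametinib defined 100% inhibition and vehicle 0%; IC50 values come from four-parameter curves. Negative inhibition was taken as paradoxical pERK induction.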
# [2] = test system: pERK in SW480 cells (KRAS G12D); assay: Phospho-ERK inhibition (AlphaLISA), SW480; assay type: cell-based, human
# Experimental: All cancer cell lines (A375, A101D, A2058, RKO, HT29 SK-MEL 30, IPC298, HepG2, HCT-116, Lovo, SWV620, SW480, NCI-H358, NCI-H2122, Calu-6, NCIH2087, NCIH1755, NCIH1666 and Mewo) were obtained from ATCC and cultured in RPMI-1640 medium (Gibco) supplemented with 5% heat inactivated fetal bovine serum (FBS, Wisent) at 37° C. under 5% CO2. Cells were maintained in T175 flasks (Greiner). They were passaged by removing the culture medium, washing once in 10 mL of room temperature Phosphate Buffered Saline (PBS; Wisent) and incubating at 37° C. with 2 mL of 0.05% Trypsin (Thermo-Fisher). Trypsin was then inactivated by adding complete growth medium and the cells were then replated in a T175 culture dish at the appropriate dilution. All cell lines were routinely tested for mycoplasma contamination. Tissue type and mutational status of each cell line can be found in Table B.
# AlphaLISA® SureFire® Ultra™ p-ERK 1/2 (Thr202/Tyr204) analysis was conducted on cells plated in 100 μL of complete RPMI-1640 growth medium in 96-well flat-bottomed transparent dishes (Costar) at a density indicated in Table C. Cells were maintained overnight at 37° C. under 5% CO2 before treatment with compounds' dilution series for one hour. The cell density in cells/cm^2 corresponds to cell number divided by the area of one well of a 96-well plate ([…]).
# In a dilution series 100 μL/well of test substance dilution prepared in complete RPMI-1640 growth media was added to the cells. The dilution series is selected so that ten concentrations cover a range from 10 μM to 0.33 nM. If necessary the initial concentration of 10 μM is increased to 100 μM or lowered to 1 μM (as in the case of A375 and H1666 cells, which are generally more sensitive to the compounds) and further dilution is carried out accordingly. The final concentration of DMSO in the assay is set at 0.5%.
# After treatment, media was removed and cells were lysed in 50 μL of 1× AlphaScreen Ultra Lysis Buffer (Perkin Elmer). The AlphaLISA® SureFire® Ultra™ p-ERK 1/2 (Thr202/Tyr2O4) (PerkinElmer) reactions were performed with 5 μL of cell lysate according to the manufacturer's specifications in 384-well proxyplates (Perkin Elmer) followed by overnight incubation of the reactions at room temperature in a humidified chamber. After completion of the reactions, the signals were recorded on an EnVision plate reader (Perkin Elmer) using built in AlphaLISA® settings.
# The effect of each compound dilution on the pERK signal was expressed in % inhibition and calculated as follows. An internal 100% inhibition control ([…] trametinib, cat #HY-10999; MedChem Express; CAS #871700-17-3) was included in each plate and used as a measure of pERK background. First, the value obtained for trametinib was subtracted from each data point. The average of DMSO (vehicle) controls (set as 0% inhibition) was established and used to calculate % inhibition: % inhibition=100*(1-((pERK signalcompound)/(pERK signalDMSO)))
# The ability of each compound to inhibit pERK signal was expressed as an IC50 value obtained by plotting the inhibition values for each data point of a dilution series and fitting the obtained curves using a log(agonist) versus response-variable slope (four parameters) function using GraphPadPrism (V7.0) or Dotmatics Screening Ultra platform.
# When present, paradoxical pERK induction is inferred from the negative % inhibition values observed in the pERK IC50 curves of a compound.
# [3] = read-out: Kinase IC50 (nM) BRAF
# [4] = read-out: Kinase IC50 (nM) CRAF
# [5] = lowest % inhibition value of the IC50 curve, HCT116
# [6] = lowest % inhibition value of the IC50 curve, SW480
# [7] = HCT116 cells, class symbol before the bracket
# [8] = BRAF, read-out: Kinase IC50 (nM), BRAF biochemical kinase assay
# [9] = CRAF, read-out: Kinase IC50 (nM), CRAF biochemical kinase assay
# [10] = Table 5, read-out: Kinase IC50 (nM) BRAF
# [11] = Table 5, read-out: Kinase IC50 (nM) CRAF
# [12] = lowest value of the curve, HCT116, Table 5
# CRAF, sequence (P04049 whole entry, looked up): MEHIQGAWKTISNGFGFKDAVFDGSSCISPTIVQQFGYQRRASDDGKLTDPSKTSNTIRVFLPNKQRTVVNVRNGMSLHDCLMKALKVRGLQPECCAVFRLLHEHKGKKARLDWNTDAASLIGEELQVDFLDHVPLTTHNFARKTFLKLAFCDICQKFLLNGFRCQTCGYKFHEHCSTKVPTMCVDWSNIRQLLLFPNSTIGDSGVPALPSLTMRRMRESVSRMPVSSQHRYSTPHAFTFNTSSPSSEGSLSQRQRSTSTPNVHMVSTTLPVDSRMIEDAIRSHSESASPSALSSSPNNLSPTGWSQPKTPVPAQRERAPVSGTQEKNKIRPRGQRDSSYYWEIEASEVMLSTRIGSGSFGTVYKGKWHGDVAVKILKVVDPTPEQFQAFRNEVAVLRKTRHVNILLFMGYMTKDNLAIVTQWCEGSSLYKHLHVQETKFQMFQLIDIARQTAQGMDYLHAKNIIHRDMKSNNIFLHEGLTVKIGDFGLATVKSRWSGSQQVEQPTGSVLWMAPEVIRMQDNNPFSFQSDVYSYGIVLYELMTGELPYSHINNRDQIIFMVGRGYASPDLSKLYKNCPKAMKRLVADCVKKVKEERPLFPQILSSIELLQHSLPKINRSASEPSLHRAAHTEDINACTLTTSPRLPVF
# BRAF, sequence (P15056 whole entry): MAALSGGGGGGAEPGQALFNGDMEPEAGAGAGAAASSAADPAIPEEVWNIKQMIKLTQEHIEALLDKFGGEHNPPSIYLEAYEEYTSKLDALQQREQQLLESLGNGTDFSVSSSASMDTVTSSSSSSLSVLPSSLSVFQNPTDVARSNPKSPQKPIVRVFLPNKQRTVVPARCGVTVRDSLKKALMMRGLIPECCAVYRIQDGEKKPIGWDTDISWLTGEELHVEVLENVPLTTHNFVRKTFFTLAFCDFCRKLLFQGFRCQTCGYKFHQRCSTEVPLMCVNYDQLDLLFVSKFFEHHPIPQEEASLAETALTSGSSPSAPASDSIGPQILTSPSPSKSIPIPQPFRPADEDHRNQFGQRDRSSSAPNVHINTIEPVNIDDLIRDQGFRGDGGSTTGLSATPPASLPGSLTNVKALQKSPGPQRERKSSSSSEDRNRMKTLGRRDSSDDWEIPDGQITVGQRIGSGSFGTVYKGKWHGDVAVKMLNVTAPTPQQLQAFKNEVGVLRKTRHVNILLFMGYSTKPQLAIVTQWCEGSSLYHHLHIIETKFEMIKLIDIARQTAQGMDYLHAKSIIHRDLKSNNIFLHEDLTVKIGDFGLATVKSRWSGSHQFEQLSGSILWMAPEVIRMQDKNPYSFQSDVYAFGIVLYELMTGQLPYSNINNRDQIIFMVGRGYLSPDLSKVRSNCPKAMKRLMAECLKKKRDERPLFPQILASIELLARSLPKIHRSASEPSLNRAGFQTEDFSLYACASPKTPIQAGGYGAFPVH
SMILES,IC50 (BRAF; [3]) [nM],IC50 (CRAF; [4]) [nM],"HCT116 pERK Ymin % ([1]; HCT116 cells, Ymin in brackets) [%]","IC50 [1, 7] [nM]",other results
O=S(=O)(Nc1ccc(F)c(Nc2ncnc3ccc(-n4cnc5ccccc54)nc23)c1F)c1ccccc1Cl [Example 8],1 to 10,< 10,–,–,"IC50 ([1]; HCT116 cells, 1 h treatment): 500 to 1000 nM; HCT116 pERK Ymin % [1, 5]: −2.5%; IC50 ([2]; SW480 cells, 1 h treatment): 500 to 1000 nM; SW480 pERK Ymin % [2, 6]: 4.8%"
Nc1cccc2c1ncn2-c1ccc2ncnc(Nc3c(F)ccc(NS(=O)(=O)c4ccccc4Cl)c3F)c2n1 [Example 83],1 to 10,< 10,−7.3,< 500,"SW480 pERK Ymin % ([2]; SW480 cells, Ymin in brackets): 2.5%; IC50 ([2]; SW480 cells, class symbol before the bracket): < 500 nM"
CCc1ccc(S(=O)(=O)Nc2ccc(F)c(Nc3ncnc4ccc(-n5cnc6ccccc65)nc34)c2F)cc1 [Example 10],> 10,> 50,–,–,"IC50 ([1]; HCT116 cells, 1 h treatment): 10000 to 30000 nM; HCT116 pERK Ymin % [1, 5]: 1%; IC50 ([2]; SW480 cells, 1 h treatment): 1000 to 10000 nM; SW480 pERK Ymin % [2, 6]: 12%"
O=S(=O)(Nc1ccc(F)c(Nc2ncnc3ccc(-n4cnc5c(CN6CC(O)C6)cccc54)nc23)c1F)c1ccccc1Cl [Ex 225],1 to 10,10 to 50,−8,1000 to 10000,–
O=S(=O)(Nc1ccc(F)c(Nc2ncnc3ccc(-n4cnc5c(N6CCC(O)(CCO)CC6)cccc54)nc23)c1F)c1cccc(Cl)c1Cl [Example 671],–,–,–,–,IC50 (BRAF; [8]): < 1 nM; IC50 (CRAF; [9]): < 10 nM; IC50 ([1]; HCT116 cells): < 500 nM; HCT116 pERK % Ymin (lowest value of the IC50 curve) ([1]; HCT116 cells): −5%
COC1CN(Cc2cccc3c2ncn3-c2ccc3ncnc(Nc4c(F)ccc(NS(=O)(=O)c5ccccc5Cl)c4F)c3n2)C1 [Ex 226],1 to 10,> 50,−9,1000 to 10000,–
CN(C)Cc1cccc2c1ncn2-c1ccc2ncnc(Nc3c(F)ccc(NS(=O)(=O)c4ccccc4Cl)c3F)c2n1 [Ex 216],1 to 10,10 to 50,−8.8,500 to 1000,–
NC(=O)Cc1cn(-c2ccc3ncnc(Nc4c(F)ccc(NS(=O)(=O)c5ccccc5Cl)c4F)c3n2)c2ccccc12 [Ex 90],1 to 10,< 10,−1,1000 to 10000,–
O=S(=O)(Nc1ccc(F)c(Nc2ncnc3ccc(-n4cnc5c(N6C7CCC6CN(CCO)C7)cccc54)nc23)c1F)c1cccc(Cl)c1Cl [Example 629],–,–,–,–,IC50 (BRAF; [8]): 1 to 10 nM; IC50 (CRAF; [9]): 10 to 50 nM; HCT116 pERK % Ymin (lowest value of the IC50 curve) ([1]; HCT116 cells): −2%
O=S(=O)(Nc1cc(F)c(F)c(Nc2ncnc3ccc(-n4cnc5ccccc54)nc23)c1F)c1cccc(Cl)c1Cl [Example 648],–,–,–,–,"IC50 (BRAF; [10]): 1 to 10 nM; IC50 (CRAF; [11]): < 10 nM; IC50 ([1]; HCT116 cells, Table 5): < 500 nM; HCT116 pERK Ymin % [1, 12]: −1%"
Cc1c(Cl)csc1S(=O)(=O)Nc1ccc(F)c(Nc2ncnc3ccc(-n4cnc5ccccc54)nc23)c1F [Example 315],1 to 10,< 10,–,–,"IC50 ([1]; HCT116 cells, 1 h treatment): < 500 nM; HCT116 pERK Ymin % [1, 5]: −12%"
NCc1cccc2c1ncn2-c1ccc2ncnc(Nc3c(F)ccc(NS(=O)(=O)c4ccccc4Cl)c3F)c2n1 [Ex 217],< 1,< 10,−9,1000 to 10000,–
O=C(Nc1cccc2c1ncn2-c1ccc2ncnc(Nc3c(F)ccc(NS(=O)(=O)c4ccccc4Cl)c3F)c2n1)N1CCOCC1 [Example 149],1 to 10,10 to 50,8.5,500 to 1000,–
"Cc1csc(S(=O)(=O)Nc2ccc(F)c(Nc3ncnc4ccc(-n5cnc6ccccc65)nc34)c2F)c1Cl [Example 316, N-(3-((6-(1H-benzo[d]imidazol-1-yl)pyrido[3,2-d]pyrimidin-4-yl)amino)-2,4-difluorophenyl)-3-chloro-4-methylthiophene-2-sulfonamide]",< 1,< 10,–,–,"IC50 ([1]; Homo sapiens, HCT-116, HCT116 cells, 1 h treatment): 500 to 1000 nM; HCT116 pERK Ymin % [1, 5]: −5%"
COc1ccc(S(=O)(=O)Nc2ccc(F)c(Nc3ncnc4ccc(-n5cnc6ccccc65)nc34)c2Cl)cc1 [Example 239],–,–,–,–,"IC50 (BRAF; [10]): > 10 nM; IC50 (CRAF; [11]): > 50 nM; IC50 ([1]; HCT116 cells, Table 5): 1000 to 10000 nM; HCT116 pERK Ymin % [1, 12]: 6.7%"
O=S(=O)(Nc1ccc(F)c(Nc2ncnc3ccc(-c4cnc(N5CCOCC5)s4)nc23)c1F)c1cccc(Cl)c1Cl [Example 631],–,–,–,–,IC50 (BRAF; [8]): > 10 nM; IC50 (CRAF; [9]): 10 to 50 nM; IC50 ([1]; HCT116 cells): < 500 nM; HCT116 pERK % Ymin (lowest value of the IC50 curve) ([1]; HCT116 cells): 0%
O=S(=O)(Nc1ccc(F)c(Nc2ncnc3ccc(-n4nc(-c5nnc(O)o5)c5ccccc54)nc23)c1F)c1cccc(Cl)c1Cl [Example 208],1 to 10,< 10,−4,1000 to 10000,–
O=S(=O)(Nc1ccc(F)c(Nc2ncnc3ccc(-n4nc(-c5ncc[nH]5)c5ccccc54)nc23)c1F)c1cccc(Cl)c1Cl [Example 212],1 to 10,> 50,−13,1000 to 10000,–
CC(=O)Nc1cccc2c1ncn2-c1ccc2ncnc(Nc3c(F)ccc(NS(=O)(=O)c4ccccc4Cl)c3F)c2n1 [Example 85],1 to 10,10 to 50,2.9,500 to 1000,–
O=S(=O)(Nc1ccc(F)c(Nc2ncnc3ccc(-n4cnc5ccccc54)nc23)c1F)c1ccc(C(F)(F)F)cc1Cl [Example 653],> 10,> 50,–,–,"IC50 ([1]; HCT116 cells, 1 h treatment): 1000 to 10000 nM; HCT116 pERK Ymin % [1, 5]: −13%"
CC(=O)c1cn(-c2ccc3ncnc(Nc4c(F)ccc(NS(=O)(=O)c5ccccc5Cl)c4F)c3n2)c2ccccc12 [Ex 214],1 to 10,> 50,−12,1000 to 10000,–
Cc1c(Cl)cccc1S(=O)(=O)Nc1ccc(F)c(Nc2ncnc3ccc(-n4nnc5c(O)cccc54)nc23)c1F [Example 117],1 to 10,< 10,−12,500 to 1000,–
